Source: ChEMBL document CHEMBL1201862, “PubChem BioAssay data set” (2004)
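A five-concentration, 48-hour dose response in 96-well plates underlies each endpoint, interpolated linearly between surrounding concentrations. Here, GI50 denotes the concentration required for 50% inhibition of growth.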 Active and inactive are the calls of the source. Cut-off read from the data, not from the text of the source: active = GI50 up to about 1.1 µM and inactive = higher.

Assays:
Assay in all cases: NCI-60 cell line screen, 48 h
[1] = system: K562
[2] = system: HT-29
[3] = system: RPMI-8226
[4] = system: EKVX
[5] = system: DMS-273
[6] = system: SK-MEL-28
[7] = system: OVCAR-3
[8] = system: SNB-78
[9] = system: XF498
[10] = system: SK-OV-3
[11] = system: SNB-75
[12] = system: NCI-H226
[13] = system: SF-539
[14] = system: SF-268
[15] = system: KM-20L2
[16] = system: CAKI-1
[17] = system: COLO 205
[18] = system: M19-MEL
[19] = system: CCRF-CEM
[20] = system: LOX IMVI
[21] = system: SK-MEL-5
[22] = system: SF-295
[23] = system: MOLT-4
[24] = system: RXF 393
[25] = system: HCC 2998
[26] = system: SK-MEL-2
[27] = system: HOP-18
[28] = system: HCT-15
[29] = system: M14
[30] = system: A549
[31] = system: UO-31
[32] = system: KM12
[33] = system: RXF 631
[34] = system: SNB-19
[35] = system: IGROV-1
[36] = system: UACC-257
[37] = system: SN12C
[38] = system: HOP-92
[39] = system: NCI-H23
[40] = system: HL-60
[41] = system: 786-0
[42] = system: DMS-114
[43] = system: Malme-3M
[44] = system: UACC-62
[45] = system: HOP-62
[46] = system: HCT-116
[47] = system: ACHN
[48] = system: NCI-H460
[49] = system: SR
[50] = system: TK-10
[51] = system: LXFL 529
[52] = system: OVCAR-4
[53] = system: OVCAR-5
[54] = system: DLD-1
[55] = system: U-251
[56] = system: OVCAR-8
[57] = system: SW-620
[58] = system: NCI-H522
[59] = system: A498

What does the source list for `CCN(CC)c1ccc(/N=C2/C=CC(=O)c3ncccc32)c(C)c1`?
GI50 [1]: 2.45 µM (inactive); GI50 [2]: 15.1 µM (inactive); GI50 [3]: 2.93 µM (inactive); GI50 [4]: 16.6 µM (inactive); GI50 [5]: 8.3 µM (inactive); GI50 [6]: 11.8 µM (inactive); GI50 [7]: 3.33 µM (inactive); GI50 [8]: 9.55 µM (inactive); GI50 [9]: 2.02 µM (inactive); GI50 [10]: 20 µM (inactive); GI50 [11]: 14.8 µM (inactive); GI50 [12]: 18.5 µM (inactive); GI50 [13]: 5.56 µM (inactive); GI50 [14]: 8.32 µM (inactive); GI50 [15]: 13.5 µM (inactive); GI50 [16]: 11 µM (inactive); GI50 [17]: 2.18 µM (inactive); GI50 [18]: 10.4 µM (inactive); GI50 [19]: 2.09 µM (inactive); GI50 [20]: 1.91 µM (inactive); GI50 [21]: 5.53 µM (inactive); GI50 [22]: 10.7 µM (inactive); GI50 [23]: 2 µM (inactive); GI50 [24]: 3.48 µM (inactive); GI50 [25]: 11.7 µM (inactive); GI50 [26]: 15.1 µM (inactive); GI50 [27]: 10.5 µM (inactive); GI50 [28]: 3.08 µM; GI50 [29]: 3.02 µM (inactive); GI50 [30]: 11.2 µM (inactive); GI50 [31]: 16.6 µM (inactive); GI50 [32]: 13.8 µM (inactive); GI50 [33]: 14.2 µM (inactive); GI50 [34]: 16.1 µM (inactive); GI50 [35]: 6.65 µM (inactive); GI50 [36]: 4.38 µM (inactive); GI50 [37]: 7.38 µM (inactive); GI50 [38]: 6.75 µM (inactive); GI50 [39]: 5.94 µM (inactive); GI50 [40]: 2.19 µM (inactive); GI50 [41]: 5.02 µM (inactive); GI50 [42]: 3.9 µM (inactive); GI50 [43]: 3.82 µM (inactive); GI50 [44]: 5.06 µM (inactive); GI50 [45]: 20.2 µM (inactive); GI50 [46]: 2.47 µM (inactive); GI50 [47]: 3.92 µM (inactive); GI50 [48]: 6.43 µM (inactive); GI50 [49]: 2.65 µM (inactive); GI50 [50]: 16.3 µM (inactive); GI50 [51]: 2.48 µM (inactive); GI50 [52]: 2.11 µM (inactive); GI50 [53]: 12 µM (inactive); GI50 [54]: 3.42 µM (inactive); GI50 [55]: 6.92 µM (inactive); GI50 [56]: 3.42 µM (inactive); GI50 [57]: 2.53 µM (inactive)

For `COc1cc(O)c2c(c1)C(=O)C=C(Cl)C2=O`, which GI50 [1] is on record?
The GI50 was > 100 µM (inactive).

What about the GI50 [2] of the same compound?
Its GI50 is > 100 µM (inactive).

What about the GI50 [3] of the same compound?
The GI50 was > 100 µM (inactive).

And the GI50 [58]?
Its GI50 is > 100 µM (inactive).

What about the GI50 [4] of the same compound?
Its GI50 is > 100 µM (inactive).

What about the GI50 [5] of the same compound?
Its GI50 is > 100 µM (inactive).

And the GI50 [6]?
The GI50 was > 100 µM (inactive).

What about the GI50 [7] of the same compound?
Its GI50 is > 100 µM (inactive).

What about the GI50 [8] of the same compound?
The GI50 was > 100 µM (inactive).

What about the GI50 [9] of the same compound?
The GI50 was 42.2 µM (inactive).

And the GI50 [10]?
The GI50 was > 100 µM (inactive).

And the GI50 [11]?
The GI50 was > 100 µM (inactive).

And the GI50 [12]?
The GI50 was 28.2 µM (inactive).

And the GI50 [13]?
Its GI50 is 68.4 µM (inactive).

What about the GI50 [14] of the same compound?
The GI50 was > 100 µM (inactive).

What about the GI50 [15] of the same compound?
Its GI50 is > 100 µM (inactive).

And the GI50 [16]?
The GI50 was > 100 µM (inactive).

And the GI50 [17]?
The GI50 was > 100 µM (inactive).

And the GI50 [18]?
The GI50 was > 100 µM (inactive).

What about the GI50 [19] of the same compound?
Its GI50 is > 100 µM (inactive).

What about the GI50 [20] of the same compound?
The GI50 was > 100 µM (inactive).

And the GI50 [21]?
The GI50 was 87.1 µM (inactive).

What about the GI50 [22] of the same compound?
The GI50 was > 100 µM (inactive).

What about the GI50 [23] of the same compound?
The GI50 was > 100 µM (inactive).

What about the GI50 [24] of the same compound?
Its GI50 is > 100 µM (inactive).

And the GI50 [25]?
Its GI50 is 83.6 µM (inactive).

And the GI50 [26]?
The GI50 was > 100 µM (inactive).

And the GI50 [27]?
The GI50 was > 100 µM (inactive).

What about the GI50 [28] of the same compound?
Its GI50 is over 100 µM.

And the GI50 [29]?
The GI50 was > 100 µM (inactive).

What about the GI50 [30] of the same compound?
The GI50 was > 100 µM (inactive).

What about the GI50 [31] of the same compound?
Its GI50 is 16 µM (inactive).

And the GI50 [32]?
Its GI50 is > 100 µM (inactive).

What about the GI50 [33] of the same compound?
Its GI50 is 51.4 µM (inactive).

And the GI50 [34]?
Its GI50 is > 100 µM (inactive).

What about the GI50 [35] of the same compound?
The GI50 was > 100 µM (inactive).

What about the GI50 [36] of the same compound?
Its GI50 is > 100 µM (inactive).

And the GI50 [59]?
Its GI50 is > 100 µM (inactive).

What about the GI50 [38] of the same compound?
Its GI50 is > 100 µM (inactive).

What about the GI50 [39] of the same compound?
The GI50 was > 100 µM (inactive).

And the GI50 [40]?
Its GI50 is > 100 µM (inactive).

And the GI50 [41]?
The GI50 was > 100 µM (inactive).

And the GI50 [42]?
The GI50 was > 100 µM (inactive).

And the GI50 [43]?
Its GI50 is > 100 µM (inactive).

And the GI50 [44]?
The GI50 was > 100 µM (inactive).

What about the GI50 [46] of the same compound?
The GI50 was 66.4 µM (inactive).

And the GI50 [47]?
Its GI50 is 94.6 µM (inactive).

What about the GI50 [50] of the same compound?
The GI50 was > 100 µM (inactive).

And the GI50 [51]?
Its GI50 is > 100 µM (inactive).

And the GI50 [52]?
Its GI50 is > 100 µM (inactive).

What about the GI50 [53] of the same compound?
The GI50 was > 100 µM (inactive).

What about the GI50 [54] of the same compound?
The GI50 was 30.3 µM (inactive).

And the GI50 [55]?
Its GI50 is > 100 µM (inactive).

And the GI50 [56]?
The GI50 was 64.7 µM (inactive).

What about the GI50 [57] of the same compound?
Its GI50 is > 100 µM (inactive).
